The molecules below were run on Wnt activity (SW480 colon carcinoma cells stably expressing the Sp5-Luc reporter gene) (assay: Sp5-Luc reporter gene screening assay for Wnt activity). Details: Homo sapiens.
Type: cell-based
Text: The screening assay for Wnt activity is described as follows. Reporter cell lines can be generated by stably transducing cancer cell lines (e.g., colon cancer) or primary cells (e.g., IEC-6 intestinal cells) with a lentiviral construct that includes a Wnt-responsive promoter driving expression of the firefly luciferase gene.
SW480 colon carcinoma cells were transduced with a lentiviral vector expressing luciferase with a human Sp5 promoter consisting of a sequence of eight TCF/LEF binding sites. SW480 cells stably expressing the Sp5-Luc reporter gene and a hygromycin resistance gene were selected by treatment with 150 μg/ml of hygromycin for 7 days. These stably transduced SW480 cells were expanded in cell culture and used for all further screening activities. For Sp5-Luc reporter gene assays, the cells were plated at 10,000 cells/well in 96-well plates with growth medium containing 10% fetal calf serum and incubated overnight at 37° C. and 5% CO2. Each compound was dissolved in DMSO as a 10 mM stock in standard j-vials and used to prepare compound source plates in dose-response format with 3-fold serial dilutions and a 10 mM top concentration. Compound transfer from serially diluted source plates to assay plates containing the cells was accomplished using a pintool (Multimek 96, Beckman equipped with V&P Scientific FP1S50H pins) based liquid handling protocol. This protocol used a slotted pin to transfer 50 nl of compound from a source plate well to an assay plate well containing 50 μl of cells in growth medium. […] Control wells received 50 nl of DMSO treatment for normalization and calculating IC50 values. The treated cells were incubated at 37° C. and 5% CO2 for an additional forty-two hours. Following incubation, the growth medium was removed and 50 μl of BrightGlo luminescence reagent (Promega) was added to each well of the 96-well assay plates. The plates were placed on an orbital shaker for 5 min and then luminescence was quantified on the Victor3 (Perkin Elmer) plate reader. Readings were normalized to DMSO only treated cells, and normalized activities were utilized for IC50 calculations using the dose-response log (inhibitor) vs. response -variable slope (four parameters) nonlinear regression feature available in GraphPad Prism 5.0 or 6.0.

IC50	SMILES
395 nM	CC(C)CC(=O)Nc1cncc(-c2cnc3[nH]nc(-c4nc5c(-c6cc(O)cc(F)c6)ccnc5[nH]4)c3c2)c1 [Compound 1322, N-(5-(3-(7-(3-Fluoro-5-hydroxyphenyl)-3H-imidazo[4,5-b]pyridin-2-yl)-1H-pyrazolo[3,4-b]pyridin-5-yl)pyridin-3-yl)-3-methylbutanamide]
> 10000 nM	O=C(CC1CCCCC1)Nc1cncc(-c2cnc3[nH]nc(-c4nc5c(-c6cccc(F)c6)ccnc5[nH]4)c3c2)c1 [Compound 923, 2-Cyclohexyl-N-(5-(3-(7-(3-fluorophenyl)-3H-imidazo[4,5-b]pyridin-2-yl)-1H-pyrazolo[3,4-b]pyridin-5-yl)pyridin-3-yl)acetamide]
> 10000 nM	Fc1cccc(-c2ccnc3[nH]c(-c4n[nH]c5ncc(-c6cncc(OC7CCCCC7)c6)cc45)nc23)c1 [Compound 915, 5-(5-(Cyclohexyloxy)pyridin-3-yl)-3-(7-(3-fluorophenyl)-3H-imidazo[4,5-b]pyridin-2-yl)-1H-pyrazolo[3,4-b]pyridine]
> 10000 nM	O=C(CC1CCNCC1)Nc1cncc(-c2cnc3[nH]nc(-c4nc5c(-c6cccc(F)c6)ccnc5[nH]4)c3c2)c1 [Compound 917, N-(5-(3-(7-(3-Fluorophenyl)-3H-imidazo[4,5-b]pyridin-2-yl)-1H-pyrazolo [3,4-b]pyridin-5-yl)pyridin-3-yl)-2-(piperidin-4-yl)acetamide]
312 nM	CN1CCN(c2ccnc3[nH]c(-c4n[nH]c5ncc(-c6cncc(NC(=O)C7CCCC7)c6)cc45)nc23)CC1 [Compound 204, N-(5-(3-(7-(4-Methylpiperazin-1-yl)-3H-imidazo[4,5-b]pyridin-2-yl)-1H-pyrazolo[3,4-b]pyridin-5-yl)pyridin-3-yl)cyclopentanecarboxamide]
> 10000 nM	Fc1cccc(-c2ccnc3[nH]c(-c4n[nH]c5ncc(-c6cncc(OCc7ccccc7)c6)cc45)nc23)c1 [Compound 922, 5-(5-(Benzyloxy)pyridin-3-yl)-3-(7-(3-fluorophenyl)-3H-imidazo[4,5-b]pyridin-2-yl)-1H-pyrazolo[3,4-b]pyridine]
43.8 nM	CN(C)c1cncc(-c2cnc3[nH]nc(-c4nc5c(-c6cccs6)ccnc5[nH]4)c3c2)c1 [Compound 291, N,N-Dimethyl-5-(3-(7-(thiophen-2-yl)-3H-imidazo[4,5-b]pyridin-2-yl)-1H-pyrazolo[3,4-b]pyridin-5-yl)pyridin-3-amine]

Further lines, the molecule ahead of its results:

SMILES	IC50
CN(C)c1cncc(-c2cnc3[nH]nc(-c4nc5c(-c6cccc(F)c6)ccnc5[nH]4)c3c2)c1 [Compound 5, 5-(3-(7-(3-Fluorophenyl)-3H-imidazo[4,5-b]pyridin-2-yl)-1H-pyrazolo [3,4-b]pyridin-5-yl)-N,N-dimethylpyridin-3-amine]	172 nM
COc1cc(F)cc(-c2ccnc3[nH]c(-c4n[nH]c5ncc(-c6cncc(NC(=O)CC(C)C)c6)cc45)nc23)c1 [Compound 1366, N-(5-(3-(7-(3-Fluoro-5-methoxyphenyl)-3H-imidazo[4,5-b]pyridin-2-yl)-1H-pyrazolo[3,4-b]pyridin-5-yl)pyridin-3-yl)-3-methylbutanamide]	125 nM
Fc1cccc(-c2ccnc3[nH]c(-c4n[nH]c5ncc(-c6cncc(CN7CCC(F)(F)C7)c6)cc45)nc23)c1 [Compound 21, 5-(5-((3,3-Difluoropyrrolidin-1-yl)methyl)pyridin-3-yl)-3-(7-(3-fluorophenyl)-3H-imidazo[4,5-b]pyridin-2-yl)-1H-pyrazolo[3,4-b]pyridine]	35.8 nM
CC(C)(C)CC(=O)Nc1cncc(-c2cnc3[nH]nc(-c4nc5c(-c6ccccc6F)ccnc5[nH]4)c3c2)c1 [Compound 57, N-(5-(3-(7-(2-Fluorophenyl)-3H-imidazo[4,5-b]pyridin-2-yl)-1H-pyrazolo[3,4-b]pyridin-5-yl)pyridin-3-yl)-3,3-dimethylbutanamide]	118 nM
CCCCC(=O)Nc1cncc(-c2cnc3[nH]nc(-c4nc5c(-c6ccoc6)ccnc5[nH]4)c3c2)c1 [Compound 276, N-(5-(3-(7-(Furan-3-yl)-3H-imidazo[4,5-b]pyridin-2-yl)-1H-pyrazolo [3,4-b]pyridin-5-yl)pyridin-3-yl)pentanamide]	8.1 nM
